Assay results: US9862711B2, “Pyrazine derivatives as phosphatidylinositol 3-kinase inhibitors” (NOVARTIS AG, priority 2014, dated 2018)

Key:
[1] = molecular target: PI 3-kinase delta (Homo sapiens (Human), UniProt O00329); assay: Cellular p-Akt (S473) SureFire assay, Rat-1_PI3Kdelta cells (Assay J); assay type: cell-based; details: p-AKT (Ser473) in Rat-1 cells expressing myr-HA-hp110 delta, 1 h compound; read-out: Assay J PI3Kδ IC50
Description: (§1) Cellular Assays for PI 3-Kinase Alpha (H), Beta (I) and Delta (J)
(§2) AlphaScreen (Amplified Luminescent Proximity Homogeneous Assay, ALPHA, Perkin Elmer) is a non-radioactive bead-based proximity assay technology to study biomolecular interactions in a homogenous microtiter plate format. The brand name SureFire denotes AlphaScreen assays that are adapted to quantify the phosphorylation of endogenous cellular proteins in cell lysates, by using matched antibody pairs, which consist of an anti-phospho-kinase and an anti-kinase antibody. The assay allows characterization of kinase signaling in cells as well as measurement of kinase inhibitor effects.
(§3) Rat-1 cell lines stably overexpressing activated PI 3-kinase class I isoforms Rat-1 pBABEpuro Myr-HA-hp110 delta clone 5 (Rat-1_PI3Kdelta) and Rat-1 pBABEpuro Myr-HA-hp110 alpha clone 6 (Rat-1_PI3Kalpha) and Rat-1 pBABEpuro Myr-HA-hp110 beta (Rat-1_PI3beta) were cultivated in complete growth medium (DMEM high glucose, 10% (v/v) fetal bovine serum, 1% (v/v) MEM NEAA, 10 mM HEPES, 2 mM L-glutamine, puromycin (10 μg/mL for Rat-1_PI3Kdelta and Rat-1_PI3Kalpha, 4 ug/mL for Rat-1_PI3beta), 1% (v/v) Pen/Strep) to 90% confluency at 37° C./5% CO2/90% humidity in a humidified CO2 incubator and were split twice a week. The following materials were used for p-AKT(5473) detection in Rat-1 cell lysates: Dulbecco's modified Eagle's medium (DMEM) high glucose (Gibco Invitrogen, Basel, Switzerland, Cat. No. 41965), heat inactivated fetal bovine serum, qualified (HI FBS; Gibco Invitrogen, Basel, Switzerland, Lot. No. 16140), MEM non essential amino acids (NEAA; Gibco Invitrogen, Basel, Switzerland, Cat. No. 11140), HEPES (Gibco Invitrogen, Basel, Switzerland, Cat. No. 15630), penicillin/streptomycin (Pen/Strep, 100×; Gibco Invitrogen, Basel, Switzerland, Cat. No. 15140-122), L-glutamine (Gibco Invitrogen, Basel, Switzerland, Cat. No. 25030), puromycin (Sigma Aldrich, Buchs, Switzerland, Cat. No. P9620), DMSO (MERCK, Dietikon, Switzerland, Cat. No. 8.02912.2500), H2O, MilliQ-H2O unless otherwise stated (MILLIPORE QGARDOOR1, Millipore, Zug, Switzerland), bovine serum albumine (BSA; Sigma Aldrich, Buchs, Switzerland Cat. No. A8412), SureFire p-Akt 1/2 (Ser473) Assay Kit (Perkin Elmer, Schwerzenbach, Switzerland, Cat. No. TGRAS50K).
(§4) The p-Akt (S473) SureFire assay measures the phosphorylation of endogenous cellular Akt 1/2 at Ser473 in cell lysates. Using Rat-1 cells stably expressing myr-HA-tagged versions of the human PI3Kdelta, PI3Kalpha, or PI3Kbeta p110 catalytic subunit isoforms, the assay was developed as a two-plate protocol in a 384-well format.
(§5) For compound testing, the cells were seeded at a density of 4000 (Rat-1_PI3Kdelta), 7500 (Rat-1_PI3Kalpha), or 6200 (Rat-1_PI3Kbeta) cells in 20 μl complete growth medium into cell culture treated 384-well plates and were grown at 37° C./5% CO2/90% humidity for 24 h. Shortly before compound transfer, the complete medium was removed, 30 μl assay buffer (DMEM high glucose, 1×MEM NEAA, 10 mM HEPES, 2 mM L-glutamine, 0.1% (w/v) BSA) was added and 10 μl of the compound predilutions were transferred to the cells. After treatment with compound for 1 h, the cells were lysed by the addition of 20 μl lysis buffer supplemented with 0.24% (w/v) BSA. Detection of p-AKT (Ser473) was performed with the SureFire p-Akt 1/2 (Ser473) Assay Kit according to the manufacturer's instructions using 5 ul of cell lysate in a total detection volume of 12 μl.
(§6) IC50 values of the percentage inhibition of each compound at 8 concentrations (usually 10, 3.0, 1.0, 0.3, 0.1, 0.030, 0.010 and 0.003 μM) n=2 were derived by fitting a sigmoidal dose-response curve to a plot of assay readout over inhibitor concentration as described. All fits were performed with the program XLfit4 (ID Business Solutions, Guildford, UK).

[2] = molecular target: PI 3-kinase alpha (Homo sapiens (Human), UniProt P42336); assay: Cellular p-Akt (S473) SureFire assay, Rat-1_PI3Kalpha cells (Assay H); assay type: cell-based; details: p-AKT (Ser473) in Rat-1 cells expressing myr-HA-hp110 alpha, 1 h compound; read-out: Assay H PI3Kα IC50
Description: as §1, §2, §3, §4, §5, §6

Chain of PI 3-kinase delta (O00329 whole entry): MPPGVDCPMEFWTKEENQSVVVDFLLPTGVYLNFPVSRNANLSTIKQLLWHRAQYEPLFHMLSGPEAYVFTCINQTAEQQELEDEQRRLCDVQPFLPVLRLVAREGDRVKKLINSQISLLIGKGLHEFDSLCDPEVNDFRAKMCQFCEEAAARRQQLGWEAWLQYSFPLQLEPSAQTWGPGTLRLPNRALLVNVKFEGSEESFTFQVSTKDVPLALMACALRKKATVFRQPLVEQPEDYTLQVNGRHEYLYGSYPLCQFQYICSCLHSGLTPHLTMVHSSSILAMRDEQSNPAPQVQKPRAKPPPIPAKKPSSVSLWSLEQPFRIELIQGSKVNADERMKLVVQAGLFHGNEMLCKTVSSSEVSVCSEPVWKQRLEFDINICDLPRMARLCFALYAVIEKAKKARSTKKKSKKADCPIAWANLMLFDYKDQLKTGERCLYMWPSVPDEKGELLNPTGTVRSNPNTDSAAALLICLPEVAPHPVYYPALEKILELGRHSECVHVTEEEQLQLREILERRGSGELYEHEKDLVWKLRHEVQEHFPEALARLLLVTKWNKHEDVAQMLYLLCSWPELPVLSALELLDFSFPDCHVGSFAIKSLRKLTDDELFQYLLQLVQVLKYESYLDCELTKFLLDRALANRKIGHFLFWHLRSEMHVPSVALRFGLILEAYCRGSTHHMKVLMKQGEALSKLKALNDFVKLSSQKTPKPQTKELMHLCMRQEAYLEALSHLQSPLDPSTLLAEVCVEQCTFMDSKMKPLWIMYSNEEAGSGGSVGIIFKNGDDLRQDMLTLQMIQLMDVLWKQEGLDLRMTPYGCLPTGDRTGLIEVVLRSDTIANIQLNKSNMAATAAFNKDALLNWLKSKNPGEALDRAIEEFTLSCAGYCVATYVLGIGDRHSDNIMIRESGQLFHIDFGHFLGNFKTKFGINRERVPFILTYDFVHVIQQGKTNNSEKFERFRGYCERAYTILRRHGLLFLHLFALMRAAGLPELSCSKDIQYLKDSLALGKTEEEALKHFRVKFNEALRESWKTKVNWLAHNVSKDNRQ
Chain of PI 3-kinase delta (Q63787 whole entry partner): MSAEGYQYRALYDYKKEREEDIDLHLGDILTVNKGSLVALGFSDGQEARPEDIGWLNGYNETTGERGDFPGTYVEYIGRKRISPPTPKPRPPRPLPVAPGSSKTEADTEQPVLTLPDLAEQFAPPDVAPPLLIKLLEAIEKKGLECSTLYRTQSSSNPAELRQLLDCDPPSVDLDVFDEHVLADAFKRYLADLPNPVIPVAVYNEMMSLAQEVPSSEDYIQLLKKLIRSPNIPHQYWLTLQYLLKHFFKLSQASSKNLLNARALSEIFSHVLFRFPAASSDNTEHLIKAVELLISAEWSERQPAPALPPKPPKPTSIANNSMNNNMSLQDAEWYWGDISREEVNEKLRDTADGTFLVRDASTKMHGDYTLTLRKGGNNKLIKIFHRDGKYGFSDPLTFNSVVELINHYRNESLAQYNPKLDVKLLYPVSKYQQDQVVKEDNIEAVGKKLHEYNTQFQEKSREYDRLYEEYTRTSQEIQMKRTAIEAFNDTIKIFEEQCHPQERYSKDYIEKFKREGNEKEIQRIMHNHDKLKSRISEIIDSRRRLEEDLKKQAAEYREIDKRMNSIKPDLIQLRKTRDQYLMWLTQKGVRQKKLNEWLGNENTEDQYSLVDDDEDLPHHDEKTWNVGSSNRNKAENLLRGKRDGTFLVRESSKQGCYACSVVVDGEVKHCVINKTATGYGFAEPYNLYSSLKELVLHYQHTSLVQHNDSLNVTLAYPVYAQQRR
Chain of PI 3-kinase alpha (P42336 whole entry): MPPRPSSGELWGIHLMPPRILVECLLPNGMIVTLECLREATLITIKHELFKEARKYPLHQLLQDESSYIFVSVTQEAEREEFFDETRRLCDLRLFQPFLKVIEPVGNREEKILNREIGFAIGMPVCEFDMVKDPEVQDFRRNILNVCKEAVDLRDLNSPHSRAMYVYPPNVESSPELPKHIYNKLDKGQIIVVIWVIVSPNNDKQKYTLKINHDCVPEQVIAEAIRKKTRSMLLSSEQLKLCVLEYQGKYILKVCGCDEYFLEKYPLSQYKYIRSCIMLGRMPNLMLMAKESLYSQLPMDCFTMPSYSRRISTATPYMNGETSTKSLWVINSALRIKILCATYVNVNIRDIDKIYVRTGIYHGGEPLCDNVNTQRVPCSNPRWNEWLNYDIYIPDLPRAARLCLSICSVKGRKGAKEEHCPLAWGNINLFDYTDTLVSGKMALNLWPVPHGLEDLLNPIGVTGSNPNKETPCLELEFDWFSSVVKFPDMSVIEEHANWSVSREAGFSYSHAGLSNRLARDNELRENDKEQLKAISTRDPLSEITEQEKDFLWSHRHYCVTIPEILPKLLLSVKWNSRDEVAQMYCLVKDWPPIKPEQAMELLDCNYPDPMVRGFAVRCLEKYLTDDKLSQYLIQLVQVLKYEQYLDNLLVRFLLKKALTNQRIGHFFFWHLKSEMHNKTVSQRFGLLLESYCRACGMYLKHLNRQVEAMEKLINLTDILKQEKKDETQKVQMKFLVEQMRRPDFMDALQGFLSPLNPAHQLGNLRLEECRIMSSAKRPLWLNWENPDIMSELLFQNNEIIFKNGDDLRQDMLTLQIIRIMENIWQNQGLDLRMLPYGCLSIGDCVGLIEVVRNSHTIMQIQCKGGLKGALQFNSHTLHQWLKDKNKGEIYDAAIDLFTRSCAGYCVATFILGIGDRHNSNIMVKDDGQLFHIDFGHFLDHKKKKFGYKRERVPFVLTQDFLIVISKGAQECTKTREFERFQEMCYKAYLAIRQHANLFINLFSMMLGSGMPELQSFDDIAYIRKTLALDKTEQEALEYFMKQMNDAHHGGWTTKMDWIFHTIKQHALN
Chain of PI 3-kinase alpha (Q63787 whole entry partner): as the sequence (Q63787 whole entry partner) above

IC50 [1] [nM]	IC50 [2] [nM]	SMILES
1370	1020	Cc1ccc(S(=O)(=O)NCCC(C)(C)O)cc1-c1cncc(-c2cn(C)nc2C)n1 [Example 3, 3-[6-(1,3-Dimethyl-1H-pyrazol-4-yl)-pyrazin-2-yl]-N-(3-hydroxy-3-methyl-butyl)-4-methyl-benzenesulfonamide]
1050	1700	Cc1ccc(S(=O)(=O)N[C@H]2CC[C@H](O)CC2)cc1-c1cncc(-c2cccnc2)n1 [Example 11, Trans N-(4-Hydroxy-cyclohexyl)-4-methyl-3-(6-pyridin-3-yl-pyrazin-2-yl)-benzenesulfonamide]
285	293	Cc1ccc(S(=O)(=O)NCC2(C)COC2)cc1-c1cncc(-c2cn(C)nc2C)n1 [Example 4, Trans 3-[6-(1,3-Dimethyl-1H-pyrazol-4-yl)-pyrazin-2-yl]-4-methyl-N-(3-methyl-oxetan-3-ylmethyl)-benzenesulfonamide]
1680	2480	Cc1ccc(S(=O)(=O)NCCC(C)(C)O)cc1-c1cncc(-c2cnn(CCN3CCOCC3)c2)n1 [Example 9, N-(3-Hydroxy-3-methyl-butyl)-4-methyl-3-{6-[1-(2-morpholin-4-yl-ethyl)-1H-pyrazol-4-yl]-pyrazin-2-yl}-benzenesulfonamide]
367	450	Cc1ccc(S(=O)(=O)NCC(C)(C)O)cc1-c1cncc(-c2cn(C)nc2C)n1 [Example 2, 3-[6-(1,3-Dimethyl-1H-pyrazol-4-yl)-pyrazin-2-yl]-N-(2-hydroxy-2-methyl-propyl)-4-methyl-benzenesulfonamide]
771	3090	Cc1ccc(S(=O)(=O)NCCC(C)(C)O)cc1-c1cncc(-c2cn(CCN3CCOCC3)nc2C)n1 [Example 10, N-(3-Hydroxy-3-methyl-butyl)-4-methyl-3-{6-[3-methyl-1-(2-morpholin-4-yl-ethyl)-1H-pyrazol-4-yl]-pyrazin-2-yl}-benzenesulfonamide]
540	838	Cc1ncc(-c2cncc(-c3cc(S(=O)(=O)N[C@H]4CC[C@H](O)CC4)ccc3C)n2)s1 [Example 5, Trans N-(4-Hydroxycyclohexyl)-4-methyl-3-(6-(2-methylthiazol-5-yl)pyrazin-2-yl)benzenesulfonamide]
